Publication PMC4033315 (Journal of medicinal chemistry, 2013)

Key:
α6/α3β2β3 nAChR = settings: cited from earlier work
α3β2 nAChR [1] = settings: cited from earlier work
α9α10 nAChR [2] = settings: cited from earlier work
α6/α3β4 nAChR = settings: cited from earlier work
[3] = target: α6/α3β2β3 nAChR (α6/α3 chimera) (Rattus norvegicus, UniProt P04757+P12390+P12391+P43143); type: cell-based
α9α10 nAChR [4] = target: α9α10 nAChR (Rattus norvegicus, UniProt P43144+Q9JLB5); type: cell-based
α7 nAChR = α7 nAChR (Rattus norvegicus, UniProt Q05941); type: cell-based
α4β2 nAChR = α4β2 nAChR (Rattus norvegicus, UniProt P09483+P12390); type: cell-based
α2β2 nAChR = α2β2 nAChR (Rattus norvegicus, UniProt P12389+P12390); type: cell-based
α3β2 nAChR [5] = target: α3β2 nAChR (Rattus norvegicus, UniProt P04757+P12390); type: cell-based
α4β4 nAChR = α4β4 nAChR (Rattus norvegicus, UniProt P09483+P12392); type: cell-based
Chain of α4β4 nAChR (P09483 31-630 limits assumed): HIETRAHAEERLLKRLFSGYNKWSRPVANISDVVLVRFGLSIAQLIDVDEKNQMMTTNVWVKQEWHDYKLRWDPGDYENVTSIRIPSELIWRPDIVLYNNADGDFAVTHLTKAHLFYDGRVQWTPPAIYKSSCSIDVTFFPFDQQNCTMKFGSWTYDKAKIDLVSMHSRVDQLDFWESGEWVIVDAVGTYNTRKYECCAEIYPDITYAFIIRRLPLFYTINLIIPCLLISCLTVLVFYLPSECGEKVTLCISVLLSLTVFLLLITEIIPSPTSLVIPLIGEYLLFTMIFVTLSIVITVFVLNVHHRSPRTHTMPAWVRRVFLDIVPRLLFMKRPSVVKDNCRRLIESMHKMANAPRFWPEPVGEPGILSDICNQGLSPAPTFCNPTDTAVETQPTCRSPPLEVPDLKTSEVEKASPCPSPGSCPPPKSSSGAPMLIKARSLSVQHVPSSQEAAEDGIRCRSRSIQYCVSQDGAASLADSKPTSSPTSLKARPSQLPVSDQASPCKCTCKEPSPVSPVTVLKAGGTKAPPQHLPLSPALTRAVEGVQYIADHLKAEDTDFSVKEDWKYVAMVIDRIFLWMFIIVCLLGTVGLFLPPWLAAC
Chain of α4β4 nAChR (P12392 22-495 limits assumed): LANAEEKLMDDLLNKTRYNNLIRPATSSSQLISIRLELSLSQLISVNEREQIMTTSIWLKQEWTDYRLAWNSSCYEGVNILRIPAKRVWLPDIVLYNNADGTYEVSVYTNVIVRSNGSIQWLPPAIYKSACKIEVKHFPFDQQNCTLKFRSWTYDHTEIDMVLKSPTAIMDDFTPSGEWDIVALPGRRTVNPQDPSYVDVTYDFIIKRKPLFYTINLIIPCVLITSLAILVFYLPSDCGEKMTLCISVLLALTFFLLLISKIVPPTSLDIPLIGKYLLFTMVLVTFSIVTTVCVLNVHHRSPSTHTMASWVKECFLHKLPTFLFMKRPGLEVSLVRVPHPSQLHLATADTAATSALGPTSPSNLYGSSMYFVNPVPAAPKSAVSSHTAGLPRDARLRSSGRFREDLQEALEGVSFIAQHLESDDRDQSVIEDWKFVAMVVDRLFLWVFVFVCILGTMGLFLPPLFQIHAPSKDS

Chain of α7 nAChR (Q05941 23-502 limits assumed): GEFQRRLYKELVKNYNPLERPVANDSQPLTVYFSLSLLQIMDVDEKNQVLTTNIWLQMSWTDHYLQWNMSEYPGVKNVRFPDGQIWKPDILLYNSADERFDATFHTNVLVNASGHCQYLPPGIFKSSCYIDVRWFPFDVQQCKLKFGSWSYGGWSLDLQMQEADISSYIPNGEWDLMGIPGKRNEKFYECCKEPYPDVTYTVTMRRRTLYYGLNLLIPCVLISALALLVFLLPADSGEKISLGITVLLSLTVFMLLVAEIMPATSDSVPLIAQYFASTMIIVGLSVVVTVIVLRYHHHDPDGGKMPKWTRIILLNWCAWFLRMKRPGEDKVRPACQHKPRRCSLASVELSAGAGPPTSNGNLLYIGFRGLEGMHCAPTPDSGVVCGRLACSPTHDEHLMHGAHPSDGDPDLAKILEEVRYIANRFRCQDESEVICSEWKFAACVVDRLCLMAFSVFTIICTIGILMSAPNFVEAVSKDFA
Chain of α3β2 nAChR (Rattus norvegicus, UniProt P04757+P12390) (P04757 26-499 limits assumed): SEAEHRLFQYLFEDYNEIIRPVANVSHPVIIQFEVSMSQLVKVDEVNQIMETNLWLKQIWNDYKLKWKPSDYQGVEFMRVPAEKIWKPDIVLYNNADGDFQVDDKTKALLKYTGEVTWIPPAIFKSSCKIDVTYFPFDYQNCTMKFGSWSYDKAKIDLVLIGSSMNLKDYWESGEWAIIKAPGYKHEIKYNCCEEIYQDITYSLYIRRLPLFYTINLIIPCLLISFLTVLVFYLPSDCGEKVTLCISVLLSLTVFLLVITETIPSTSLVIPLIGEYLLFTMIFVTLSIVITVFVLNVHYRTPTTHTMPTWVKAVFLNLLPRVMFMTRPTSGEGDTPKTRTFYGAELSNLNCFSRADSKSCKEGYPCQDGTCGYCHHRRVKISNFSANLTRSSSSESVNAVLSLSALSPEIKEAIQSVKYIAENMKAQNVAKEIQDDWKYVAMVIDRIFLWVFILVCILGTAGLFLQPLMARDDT
Chain of α3β2 nAChR (Rattus norvegicus, UniProt P04757+P12390) (P12390 25-500 limits assumed): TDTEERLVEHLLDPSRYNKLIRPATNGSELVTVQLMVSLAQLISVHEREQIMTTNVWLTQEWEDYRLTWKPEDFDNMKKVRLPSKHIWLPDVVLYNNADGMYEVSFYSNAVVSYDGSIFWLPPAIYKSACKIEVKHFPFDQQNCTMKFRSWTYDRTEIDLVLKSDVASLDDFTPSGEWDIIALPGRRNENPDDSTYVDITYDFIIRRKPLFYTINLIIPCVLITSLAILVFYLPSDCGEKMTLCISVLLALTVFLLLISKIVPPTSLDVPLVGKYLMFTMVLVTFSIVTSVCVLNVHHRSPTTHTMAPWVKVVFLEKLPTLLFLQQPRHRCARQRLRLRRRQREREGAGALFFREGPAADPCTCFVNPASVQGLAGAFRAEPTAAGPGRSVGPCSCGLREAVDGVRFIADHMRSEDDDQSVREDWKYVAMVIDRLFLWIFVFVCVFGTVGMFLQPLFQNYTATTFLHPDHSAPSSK
Chain of α9α10 nAChR (Rattus norvegicus, UniProt P43144+Q9JLB5) (P43144 26-479 limits assumed): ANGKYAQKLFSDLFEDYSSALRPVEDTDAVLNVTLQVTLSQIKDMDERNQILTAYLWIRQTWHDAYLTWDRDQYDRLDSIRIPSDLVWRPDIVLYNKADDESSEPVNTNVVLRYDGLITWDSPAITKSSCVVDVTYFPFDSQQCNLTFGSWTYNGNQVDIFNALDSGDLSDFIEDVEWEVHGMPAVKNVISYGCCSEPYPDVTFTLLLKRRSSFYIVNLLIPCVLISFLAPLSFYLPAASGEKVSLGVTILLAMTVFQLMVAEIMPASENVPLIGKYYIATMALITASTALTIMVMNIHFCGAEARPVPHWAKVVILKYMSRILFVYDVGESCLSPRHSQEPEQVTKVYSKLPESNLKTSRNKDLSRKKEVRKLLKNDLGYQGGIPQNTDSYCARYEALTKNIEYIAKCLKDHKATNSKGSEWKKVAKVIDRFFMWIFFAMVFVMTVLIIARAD
Chain of α9α10 nAChR (Rattus norvegicus, UniProt P43144+Q9JLB5) (Q9JLB5 25-447 limits assumed): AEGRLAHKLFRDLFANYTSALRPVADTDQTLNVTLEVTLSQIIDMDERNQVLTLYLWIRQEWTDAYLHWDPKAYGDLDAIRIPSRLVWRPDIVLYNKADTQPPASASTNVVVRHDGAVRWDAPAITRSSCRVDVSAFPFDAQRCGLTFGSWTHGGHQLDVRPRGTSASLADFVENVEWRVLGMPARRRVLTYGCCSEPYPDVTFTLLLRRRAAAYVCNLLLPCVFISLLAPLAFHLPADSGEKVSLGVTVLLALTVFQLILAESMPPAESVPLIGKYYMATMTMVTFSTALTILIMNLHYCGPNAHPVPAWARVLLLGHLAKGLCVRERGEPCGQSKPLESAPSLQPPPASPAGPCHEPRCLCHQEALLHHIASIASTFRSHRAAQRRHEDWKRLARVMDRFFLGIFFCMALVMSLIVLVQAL
Chain of α4β2 nAChR (P09483 31-630 limits assumed): as the sequence (P09483 31-630 limits assumed) above
Chain of α4β2 nAChR (P12390 25-500 limits assumed): as the sequence (P12390 25-500 limits assumed) above
Chain of α2β2 nAChR (P12389 28-511 limits assumed): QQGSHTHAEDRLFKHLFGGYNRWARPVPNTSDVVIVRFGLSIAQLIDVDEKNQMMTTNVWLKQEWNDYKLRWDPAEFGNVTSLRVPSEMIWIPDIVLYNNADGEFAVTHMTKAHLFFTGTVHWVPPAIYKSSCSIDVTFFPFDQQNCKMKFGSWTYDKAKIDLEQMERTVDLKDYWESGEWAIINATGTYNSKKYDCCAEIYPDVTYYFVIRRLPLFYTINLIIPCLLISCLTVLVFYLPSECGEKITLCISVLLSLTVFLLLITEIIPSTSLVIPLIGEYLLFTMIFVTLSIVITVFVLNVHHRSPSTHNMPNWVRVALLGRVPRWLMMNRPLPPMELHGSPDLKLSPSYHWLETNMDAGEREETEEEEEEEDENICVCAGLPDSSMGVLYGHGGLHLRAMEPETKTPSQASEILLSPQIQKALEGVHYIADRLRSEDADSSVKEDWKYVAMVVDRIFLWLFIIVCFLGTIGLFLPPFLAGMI
Chain of α2β2 nAChR (P12390 25-500 limits assumed): as the sequence (P12390 25-500 limits assumed) above

| Molecule | IC50 (α6/α3β2β3 nAChR) | IC50 (α3β2 nAChR [1]) | IC50 (α9α10 nAChR [2]) | IC50 (α6/α3β4 nAChR) | block at 10^−5 M [3] | block at 10^−5 M (α9α10 nAChR [4]) | block of ACh-evoked currents (α9α10 nAChR [4]) | block at 10^−5 M (α7 nAChR) | block of ACh-evoked currents (α7 nAChR) | block at 10^−5 M (α4β2 nAChR) | block at 10^−5 M (α2β2 nAChR) | block at 10^−5 M (α3β2 nAChR [5]) | block of ACh-evoked currents (α3β2 nAChR [5]) | block at 10^−5 M (α4β4 nAChR) | block of ACh-evoked currents (α4β4 nAChR) |
| --- | --- | --- | --- | --- | --- | --- | --- | --- | --- | --- | --- | --- | --- | --- | --- |
| Vc1.1 | 140 nM | 7300 nM | 19 nM | 980 nM |  |  |  |  |  |  |  |  |  |  |  |
| CC[C@H](C)[C@@H]1NC(=O)[C@@H]2CCCN2C(=O)[C@H](CO)NC(=O)[C@H](CCSC)NC(=O)[C@H](C)NC(=O)[C@H](CO)NC(=O)[C@@H]2CSSC[C@H](NC(=O)CN)C(=O)N[C@@H](CSSC[C@@H](C(N)=O)NC1=O)C(=O)N[C@@H](CO)C(=O)N[C@@H](Cc1c[nH]cn1)C(=O)N1CCC[C@H]1C(=O)N[C@@H](C(C)C)C(=O)N2 [TxID] |  |  |  |  | c less than 50% block at 10^−5 M. All receptors are rat except for α1β1δε, which is mouse. | c less than 50% block at 10^−5 M. All receptors are rat except for α1β1δε, which is mouse. | no inhibition | c less than 50% block at 10^−5 M. All receptors are rat except for α1β1δε, which is mouse. | no inhibition | c less than 50% block at 10^−5 M. All receptors are rat except for α1β1δε, which is mouse. | c less than 50% block at 10^−5 M. All receptors are rat except for α1β1δε, which is mouse. | c less than 50% block at 10^−5 M. All receptors are rat except for α1β1δε, which is mouse. | no inhibition | c less than 50% block at 10^−5 M. All receptors are rat except for α1β1δε, which is mouse. | no inhibition |
